Results on 49 molecules are retold here after patent publication US11905244B2, “Chemical modulators of store-operated calcium channels and their therapeutic applications” (The Texas A&M University System, priority 2017, dated 2024).

As usually defined, the IC50 is the midpoint of a concentration-inhibition curve.

In the first experiment the test system is MDA-MB-231 breast cancer cells. Put plainly: Migration assay (wound healing assay). The class given is cell-based. As to conditions: MDA-MB-231, wound healing assay. The method, then:
The effect of compounds on inhibiting migration was evaluated using wound healing assay. Briefly, cells were seeded in a six well-plate, and a wound was generated by scratching the cell monolayer with a 200 μL pipette tip. Then, cells were continued to be cultured in the presence or absence of compounds, and the photographic recording was performed at 0 h, 24 h, and 48 h respectively. The number of the migrated cells was calculated with ImageJ software.
As for `CN/C(=N/c1cc(Cl)ccc1Cl)SC1CC(=O)N(c2ccc(C(=O)OC)cc2)C1=O` (centres unmarked) [Compound 65], the Cell migration entry was “greatly inhibit”.

Consider `CCN/C(=N/c1ccc2c(c1)OCO2)SC1CC(=O)N(c2ccc(C(=O)OC)cc2)C1=O` (centres unmarked) [Compound 66], for which the Cell migration entry is “greatly inhibit”.

The target in the next experiment is CRAC channel (Homo sapiens (Human), UniProt Q96D31). Briefly: GFP-NFAT translocation-based high-content screening (TG-stimulated HeLa cells stably expressing GFP-NFAT). The class given is cell-based. The following applies: 200 μM compound. The text has this: It is known that thapsigargin (TG) can induce the CRAC channel to open resulting in the calcium influx. The elevation of calcium in cytoplasm can activate the Ca^2+-calcineurin-NFAT pathway followed by NFAT translocation from the cytoplasm to the nucleus to regulate gene transcription. Therefore, the inventors built a GFP-NFAT translocation-based high-content screening method to evaluate the activity of compounds on CRAC channel. Briefly, a HeLa cell line stably expressing GFP-NFAT was established and used, and the images after chemical stimulation in the presence of TG were acquired using an IN Cell Analyzer 6000 confocal laser imaging system, and then the GFP fluorescent intensity ratio between cytoplasm and nucleus was analyzed to reflect the inhibitory activity of compound on CRAC channel.
Chain of CRAC channel (Q96D31 whole entry): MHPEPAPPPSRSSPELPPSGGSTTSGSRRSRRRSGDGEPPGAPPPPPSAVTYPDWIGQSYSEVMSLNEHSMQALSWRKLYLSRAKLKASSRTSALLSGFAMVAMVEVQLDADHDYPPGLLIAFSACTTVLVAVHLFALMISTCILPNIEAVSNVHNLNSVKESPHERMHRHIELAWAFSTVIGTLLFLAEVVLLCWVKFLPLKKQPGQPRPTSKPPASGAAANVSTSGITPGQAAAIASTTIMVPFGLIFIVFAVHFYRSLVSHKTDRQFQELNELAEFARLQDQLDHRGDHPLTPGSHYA
Briefly, GFP-NFAT stable cells were cultured in Dulbecco's modified eagle's medium (DMEM) supplemented with 10% FBS in 5% carbon dioxide at 37° C. When it reached 90% confluency, a cell suspension with a concentration of […] was prepared, and an amount of 2000 cells per well (25 μL/well) was seeded in 384 well plate, putting it at the room temperature for 1 h to make sure the cells distribute evenly, then the cells were incubated overnight. First, primary screening of the selected compounds was conducted. A series of compound solutions with a concentration of 200 μM in MEDM medium were prepared in a 96 well plate and then added to a 384 well plate using a Beckman Coulter automatic drug adding system, in 4 duplicates, and incubated for 30 min at 37° C. SKF was selected as the positive control. Then, 1 μM TG and 1 mM Ca^2+ were added to 384-well plate using Beckman Coulter automatic drug adding system and incubated for 20 min. Subsequently, 384 well plate was gently washed with PBS twice, and the cells were fixed with 4% PFA (25 μl per well) for 10˜15 mins at room temperature, then washed with PBS gently, added 0.5% Triton X-100 (25 μL per well), and incubated for 5 mins aFt room temperature, stained with DAPI (1 μg/mL) for 5˜10 mins at room temperature, washed with PBS and added 30 μL PBS per well to image on confocal laser imaging system (objective lens: 10×, FITC and UV). Using Pipeline Plot software (NAFT translocation protocol), the intensity of green fluorescence was analyzed in nucleus and cytosol, calculate the ratio of nucleus:cytosol, normalize TG stimulate NFAT translocation as 1 and no TG adding as 0. Finally, the data was analyzed using GraphPad Prism 5 software.
Regarding `CN/C(=N/c1cc(Cl)ccc1Cl)SC1CC(=O)N(c2ccc(C(=O)OC)cc2)C1=O` (centres unmarked) [Compound 65], the “Inhibitory activity on CRAC channel in primary screening (NFAT nucleus-to-cytosol ratio)” value is “good inhibition”.

Consider `CCN/C(=N/c1ccc2c(c1)OCO2)SC1CC(=O)N(c2ccc(C(=O)OC)cc2)C1=O` (centres unmarked) [Compound 66], for which the “Inhibitory activity on CRAC channel in primary screening (NFAT nucleus-to-cytosol ratio)” value was “good inhibition”.

The experiment is the same for the next values; noted with them: Table 2; unit inferred; read-out: IC50 of the compounds (inhibitory activity on CRAC channel).
`CN/C(=N/c1cc(Cl)ccc1Cl)SC1CC(=O)N(c2ccc(C(=O)OC)cc2)C1=O` (centres unmarked) [Compound 65]: the IC50 was determined as 30.6 µM.

For `CCN/C(=N/c1ccc2c(c1)OCO2)SC1CC(=O)N(c2ccc(C(=O)OC)cc2)C1=O` (centres unmarked) [Compound 66], the half-maximal inhibitory concentration (IC50) is 10.5 µM.

For the molecule `CCN/C(=N/c1cccc(F)c1)SC1CC(=O)N(c2ccc(C(=O)O)cc2)C1=O` (centres unmarked) [Compound 73], the IC50 is greater than 200 µM.

With `COc1ccc(CN/C(=N/c2ccc(Cl)cc2)SC2CC(=O)N(c3ccc(C(=O)O)cc3)C2=O)cc1` (centres unmarked) [Compound 74], the half-maximal inhibitory concentration (IC50) is greater than 200 µM.

Regarding `CN/C(=N/c1ccccc1)SC1CC(=O)N(c2ccc(C(=O)OC)cc2)C1=O` (centres unmarked) [Compound 75], the IC50 is greater than 200 µM.

Take `CCN/C(=N\c1ccccc1)SC1CC(=O)N(c2ccc(C(=O)OC)cc2)C1=O` (centres unmarked) [Compound 76]: the half-maximal inhibitory concentration (IC50) is greater than 200 µM.

Regarding `CCCN/C(=N\c1ccccc1)SC1CC(=O)N(c2ccc(C(=O)OC)cc2)C1=O` (centres unmarked) [Compound 77], the IC50 is greater than 200 µM.

For `CCCCN/C(=N\c1ccccc1)SC1CC(=O)N(c2ccc(C(=O)OC)cc2)C1=O` (centres unmarked) [Compound 78], the IC50 was greater than 200 µM.

With `COC(=O)c1ccc(N2C(=O)CC(S/C(=N/c3ccccc3)NC(C)C)C2=O)cc1` (centres unmarked) [Compound 79], the IC50 came to 11.7 µM.

On to `COC(=O)c1ccc(N2C(=O)CC(S/C(=N/c3ccccc3)NC3CC3)C2=O)cc1` (centres unmarked) [Compound 80], for which the half-maximal inhibitory concentration (IC50) is greater than 200 µM.

Take `COC(=O)c1ccc(N2C(=O)CC(S/C(=N/c3ccccc3)NC(C)(C)C)C2=O)cc1` (centres unmarked) [Compound 81]: the IC50 is greater than 200 µM.

As for `CCOC(=O)c1ccc(N2C(=O)CC(S/C(=N/c3ccccc3)NC)C2=O)cc1` (centres unmarked) [Compound 82], the 50% inhibitory concentration (IC50) turned out to be 22.4 µM.

With `CCN/C(=N\c1ccccc1)SC1CC(=O)N(c2ccc(C(=O)OCC)cc2)C1=O` (centres unmarked) [Compound 83], the IC50 was greater than 200 µM.

Regarding `CCCN/C(=N\c1ccccc1)SC1CC(=O)N(c2ccc(C(=O)OCC)cc2)C1=O` (centres unmarked) [Compound 84], the IC50 is greater than 200 µM.

`CCCCN/C(=N\c1ccccc1)SC1CC(=O)N(c2ccc(C(=O)OCC)cc2)C1=O` (centres unmarked) [Compound 85]: the half-inhibitory concentration (IC50) was greater than 200 µM.

For the molecule `CCOC(=O)c1ccc(N2C(=O)CC(S/C(=N/c3ccccc3)NC(C)C)C2=O)cc1` (centres unmarked) [Compound 86], the concentration for half-maximal inhibition (IC50) amounted to 6.34 µM.

Turning to `CCOC(=O)c1ccc(N2C(=O)CC(S/C(=N/c3ccccc3)NC(C)(C)C)C2=O)cc1` (centres unmarked) [Compound 88], the IC50 is greater than 200 µM.

In the case of `CNC(=O)c1ccc(N2C(=O)CC(S/C(=N/c3ccccc3)NC)C2=O)cc1` (centres unmarked) [Compound 89], the IC50 was greater than 200 µM.

For the molecule `CCN/C(=N\c1ccccc1)SC1CC(=O)N(c2ccc(C(=O)NC)cc2)C1=O` (centres unmarked) [Compound 90], the IC50 was greater than 200 µM.

Take `CCCN/C(=N\c1ccccc1)SC1CC(=O)N(c2ccc(C(=O)NC)cc2)C1=O` (centres unmarked) [Compound 91]: the concentration for half-maximal inhibition (IC50) is greater than 200 µM.

Take `CCCCN/C(=N\c1ccccc1)SC1CC(=O)N(c2ccc(C(=O)NC)cc2)C1=O` (centres unmarked) [Compound 92]: the 50% inhibitory concentration (IC50) was greater than 200 µM.

As for `CNC(=O)c1ccc(N2C(=O)CC(S/C(=N/c3ccccc3)NC(C)C)C2=O)cc1` (centres unmarked) [Compound 93], the IC50 is greater than 200 µM.

For `CNC(=O)c1ccc(N2C(=O)CC(S/C(=N/c3ccccc3)NC3CC3)C2=O)cc1` (centres unmarked) [Compound 94], the IC50 was greater than 200 µM.

As for `CNC(=O)c1ccc(N2C(=O)CC(S/C(=N/c3ccccc3)NC(C)(C)C)C2=O)cc1` (centres unmarked) [Compound 95], the IC50 is greater than 200 µM.

For the molecule `NS(=O)(=O)c1ccc(CCN/C(=N\c2ccccc2)SC2CC(=O)N(c3ccccc3)C2=O)cc1` (centres unmarked) [Compound 96], the IC50 turned out to be 10.9 µM.

As for `NS(=O)(=O)c1ccc(CCNC(=S)Nc2cccnc2)cc1` [Compound 97], the IC50 was greater than 200 µM.

As to `COC(=O)c1ccc(N2C(=O)CC(S/C(=N/c3cc(OC)ccc3OC)NCCc3ccc(S(N)(=O)=O)cc3)C2=O)cc1` (centres unmarked) [Compound 98], the concentration for half-maximal inhibition (IC50) was 21.2 µM.

As for `CNC(=O)c1ccc(N2C(=O)CC(S/C(=N/c3ccccc3)NCCc3ccc(S(N)(=O)=O)cc3)C2=O)cc1` (centres unmarked) [Compound 99], the IC50 was determined as 18.2 µM.

For the molecule `COC(=O)c1ccc(N2C(=O)CC(S/C(=N/c3ccc(OC)cc3)NCCc3ccc(S(N)(=O)=O)cc3)C2=O)cc1` (centres unmarked) [Compound 100], the IC50 is 14.8 µM.

Take `COC(=O)c1ccc(N2C(=O)CC(S/C(=N/c3cccc(OC)c3)NCCc3ccc(S(N)(=O)=O)cc3)C2=O)cc1` (centres unmarked) [Compound 101]: the IC50 was 11.2 µM.

As to `COC(=O)c1ccc(N2C(=O)CC(S/C(=N/c3ccc(C)cc3)NCCc3ccc(S(N)(=O)=O)cc3)C2=O)cc1` (centres unmarked) [Compound 102], the half-inhibitory concentration (IC50) was 9.2 µM.

With `CCOC(=O)c1ccc(N2C(=O)CC(S/C(=N/c3ccccc3)NCCc3ccc(S(N)(=O)=O)cc3)C2=O)cc1` (centres unmarked) [Compound 103], the half-maximal inhibitory concentration (IC50) came out at 15.8 µM.

For `NS(=O)(=O)c1ccc(CCNC(=S)Nc2cccc3ccccc23)cc1` [Compound 104], the IC50 is greater than 200 µM.

In the case of `COc1ccc(N2C(=O)CC(S/C(=N/c3ccc(C)cc3)NCCc3ccc(S(N)(=O)=O)cc3)C2=O)cc1` (centres unmarked) [Compound 105], the 50% inhibitory concentration (IC50) was greater than 200 µM.

On to `COc1ccc(N2C(=O)CC(S/C(=N/c3ccccc3)NCCc3ccc(S(N)(=O)=O)cc3)C2=O)cc1` (centres unmarked) [Compound 106], for which the 50% inhibitory concentration (IC50) was determined as 5.01 µM.

As to `CCOC(=O)c1ccc(N2C(=O)CC(S/C(=N/c3ccc(OC)cc3)NCCc3ccc(S(N)(=O)=O)cc3)C2=O)cc1` (centres unmarked) [Compound 107], the IC50 is greater than 200 µM.

For `COc1ccc(/N=C(\NCCc2ccc(S(N)(=O)=O)cc2)SC2CC(=O)N(c3ccc(OC)cc3)C2=O)cc1` (centres unmarked) [Compound 108], the concentration for half-maximal inhibition (IC50) is greater than 200 µM.

In the case of `COc1ccc(N2C(=O)CC(S/C(=N/c3cc(OC)ccc3OC)NCCc3ccc(S(N)(=O)=O)cc3)C2=O)cc1` (centres unmarked) [Compound 109], the 50% inhibitory concentration (IC50) was greater than 200 µM.

For the molecule `CCOC(=O)c1ccc(N2C(=O)CC(S/C(=N/c3cc(OC)ccc3OC)NCCc3ccc(S(N)(=O)=O)cc3)C2=O)cc1` (centres unmarked) [Compound 110], the concentration for half-maximal inhibition (IC50) was greater than 200 µM.

On to `COc1ccc(/N=C(\NCCc2ccc(S(N)(=O)=O)cc2)SC2CC(=O)N(c3ccccc3)C2=O)cc1` (centres unmarked) [Compound 111], for which the IC50 turned out to be 1.6 µM.

Regarding `COc1ccc(OC)c(/N=C(\NCCc2ccc(S(N)(=O)=O)cc2)SC2CC(=O)N(c3ccccc3)C2=O)c1` (centres unmarked) [Compound 112], the concentration for half-maximal inhibition (IC50) was 0.2 µM.

In the case of `Cc1ccc(/N=C(\NCCc2ccc(S(N)(=O)=O)cc2)SC2CC(=O)N(c3ccccc3)C2=O)cc1` (centres unmarked) [Compound 113], the IC50 is 5.83 µM.

In the case of `COc1ccc(/N=C(\NCCc2ccc(S(N)(=O)=O)cc2)SC2CC(=O)N(c3ccc(C)cc3)C2=O)cc1` (centres unmarked) [Compound 114], the IC50 was greater than 200 µM.

On to `Cc1ccc(/N=C(\NCCc2ccc(S(N)(=O)=O)cc2)SC2CC(=O)N(c3ccc(C)cc3)C2=O)cc1` (centres unmarked) [Compound 115], for which the 50% inhibitory concentration (IC50) amounted to 5.84 µM.

For the molecule `CCOC(=O)c1ccc(N2C(=O)CC(S/C(=N/c3ccc(C)cc3)NCCc3ccc(S(N)(=O)=O)cc3)C2=O)cc1` (centres unmarked) [Compound 116], the 50% inhibitory concentration (IC50) is greater than 200 µM.

For `CCOC(=O)c1ccc(N2C(=O)CC(Sc3nc4ccccc4n3CCc3ccc(S(N)(=O)=O)cc3)C2=O)cc1` (centres unmarked) [Compound 117], the half-maximal inhibitory concentration (IC50) was greater than 200 µM.

Turning to `COc1ccc(N2C(=O)CC(Sc3nc4ccccc4n3CCc3ccc(S(N)(=O)=O)cc3)C2=O)cc1` (centres unmarked) [Compound 118], the IC50 is greater than 200 µM.

In the case of `Cc1ccc(N2C(=O)CC(Sc3nc4ccccc4n3CCc3ccc(S(N)(=O)=O)cc3)C2=O)cc1` (centres unmarked) [Compound 119], the concentration for half-maximal inhibition (IC50) was greater than 200 µM.

Regarding `COc1ccc(N2C(=O)CC(Br)C2=O)cc1` (centres unmarked) [Compound 120], the 50% inhibitory concentration (IC50) is greater than 200 µM.
